The record followed here is US12569510B2, “Antiviral prodrugs and pharmaceutical compositions thereof” (THE SCRIPPS RESEARCH INSTITUTE, priority 2019, dated 2026).

Series [1] can be described thus: Aqueous solubility (pH 7.4). The format is physicochemical.
Series [2] can be described thus: SC rat PK: EFdA plasma levels. The following applies: for Cmax compared with EFdA / duration of plasma levels of EFdA above lower limit of quantitation (LLOQ): single SC dose, 10 mg/kg EFdA equivalent, 4 mg/mL; for half life and mean residence life compared with EFdA: SC, 100 mg/kg EFdA equivalent. How it is done: (§1) • Animals: Animals (Male SD rats ˜200-250 g and Male rhesus macaques ˜2-3 kg) were obtained from an approved vendor (SLAC Laboratory Animal Co. Ltd., Shanghai, China and/or Topgene Biotechnology, Wuhan city, Hubei Province, China). • Acclimation/Quarantine: Following arrival, animals were assessed as to their general health by a member of the veterinary staff or other authorized personnel. Animals were acclimated for at least 3 days before being placed on study. • Animal Husbandry: Animals were group housed during acclimation and individually housed during the study. The animal room environment will be controlled (target conditions: temperature 18 to 26° C., relative humidity 30 to 70%, 12 hours artificial light and 12 hours dark). Temperature and relative humidity were monitored daily. • Animal Cannulation: No
(§2) Animals were fasted at least 12 hours prior to the administration. All animals had access to Certified Rodent and non-Rodent Diet (Catalog #M01-F, SLAC Laboratory Animal Cl. Ltd., Shanghai, China) ad libitum 4 hours post dosing.
Animals were dosed within four hours of suspension preparation. Two 20 μL aliquots of each prepared suspension were transferred into 1.5 mL of polypropylene microcentrifuge tubes and dose validation was run by LC/UV or LC-MS/MS.
The suspensions were administered via subcutaneous injection (SC) following facility standard operations procedures (SOPs).
Approximately 200 μL blood was collected from saphenous vein at each time point for rats and 0.5 mL for rhesus macaques. All blood samples were transferred into microcentrifuge tubes containing 4 μL of K2EDTA (0.5M) as anti-coagulant and placed on wet ice until processed for plasma.
Blood: Blood samples were processed for plasma by centrifugation at approximately 4° C., 3000 g 15 min within half an hour of collection. Plasma samples was stored in polypropylene tubes, quick frozen over dry ice and kept at −70±10° C. until LC/MS/MS analysis.
If the carryover couldn't meet the criteria, then the percent of carryover should be estimated following in-house bioanalytical SOP. 6. Data Analysis
Plasma concentration versus time data was analyzed by non-compartmental approaches using the Phoenix WinNonlin 6.3 software program. Cmax, Tmax, T1/2, AUC(0-t), AUC(0-inf), MRT(0-t), MRT(0-inf), % F and graphs of plasma concentration versus time profile were generated.
Several prodrugs including EFdA (1) as a control were subjected to a single dose rat PK studies via subcutaneous route of administration. All animals were injected with equivalent doses of 10 mg/kg and concentration of 4 mg/mL of EFdA as an aqueous suspension in 0.5% CMC-Na and 0.5% TWEEN-80.
After optimization, SC rat PK studies were performed again with high equivalent dose of 100 mg/kg at equivalent concentration of 120 mg/mL for Compound 3, 116 mg/mL for Compound 5, and 319 mg/mL of EFdA, respectively.

Series [3] is described as follows: Stability of aqueous suspension, 2 weeks at 40° C./75% relative humidity (XPRD). The format is physicochemical. Particulars: aqueous 0.25% CMC-Na/0.5% TWEEN-80 suspension. How it is done: LC-MS (ESI+): m/z 502.41 [M+H]^+. About 275 mg/g of Compound 6 was suspended in aqueous 0.25% CMC-Na/0.5% TWEEN-80 (26 gauge syringeability) and was subjected to stability for 2 weeks at 40° C./75% relative humidity.

Series [4] can be described thus: SC rhesus PK: EFdA plasma levels. The following applies: rhesus macaque, single SC dose, 50 mg/kg EFdA equivalent. How it is done:
as §1, §2
Animals were dosed within four hours of suspension preparation. […]
Plasma concentration versus time data was analyzed by non-compartmental approaches using the Phoenix WinNonlin 6.3 software program. […]

A short description of series [5]: Optimization of surfactant concentration in Compound 5 suspension (syringeability, viscosity, flow, resuspension). The format is physicochemical. Also noted: key to Flow: + No Flow; ++ Less Flow; +++ Good Flow; ++++ Very Good Flow; key to Viscosity: ++++ Slightly Viscous; +++ Viscous; ++ Very Viscous; + Semisolid; key to Syringeability (26 G): ✓: Syringeable. Particulars: 400 mg/gm Compound 5, after 10 days of storage. How it is done:
The concentration of surfactant was optimized with 0.3% and 0.5% of methyl cellulose in a formation containing 400 mg/gm of micronized Compound 5. Formulations were prepared with different concentrations of TWEEN-80 (0.1, 0.2 and 0.3%).

Setting [6] is: aqueous medium at pH 7.4, pH 7.4, aqueous buffer, read-out: Aqueous solubility (pH 7.4).
[7] abbreviates: 0.3% Methyl Cellulose, 0.1% TWEEN-80.
Setting [8] is: 0.3% Methyl Cellulose, 0.2% TWEEN-80.
Where [9] appears, read: 0.3% Methyl Cellulose, 0.3% TWEEN-80.
[10] abbreviates: 0.5% Methyl Cellulose, 0.1% TWEEN-80.
The mark [11] stands for this setting: 0.5% Methyl Cellulose, 0.2% TWEEN-80.
Where [12] appears, read: 0.5% Methyl Cellulose, 0.3% TWEEN-80.

In brackets after ≈: the same amount, converted by molar mass. Read-outs that look alike come from different tables or passages of the source.

The solubility is the dissolved amount per volume that the medium holds.

For the compound `C#C[C@]1(CO)O[C@@H](n2cnc3c(N)nc(F)nc32)C[C@@H]1O` [Compound 1, 4′-Ethynyl-2-fluoro-2′-deoxyadenosine, reference compound], the solubility in series [1] (aqueous medium at physiological pH, pH 7.4, aqueous buffer, read-out: aqueous solubility at physiological pH) came out at 877 µg/mL (≈ 2990 µM).

For `C#C[C@]1(COC(=O)C(C)C)O[C@@H](n2cnc3c(N)nc(F)nc32)C[C@@H]1OC(=O)C(C)C` [Compound 2, (2R,3S,5R)-5-(6-amino-2-fluoro-9H-purin-9-yl)-2-ethynyl-2-((isobutyryloxy)methyl)tetrahydrofuran-3-yl isobutyrate], in series [2], the “Cmax compared with EFdA” value is “much lower than for EFdA” and the “duration of plasma levels of EFdA above lower limit of quantitation (LLOQ)” value is reported as “more than a week”. Also, in series [3], the “crystallinity in suspension (XPRD)” value was “retains good crystallinity in suspension”.

Consider `C#C[C@]1(COC(=O)C(CC)CC)O[C@@H](n2cnc3c(N)nc(F)nc32)C[C@@H]1OC(=O)C(CC)CC` [Compound 3, (2R,3S,5R)-5-(6-amino-2-fluoro-9H-purin-9-yl)-2-(((2-ethylbutanoyl)oxy)methyl)-2-ethynyltetrahydrofuran-3-yl 2-ethylbutanoate], for which, in series [2], the “half life and mean residence life compared with EFdA” value is “Enhanced half life and mean residence life”; the “Cmax compared with EFdA” value was “much lower than for EFdA”; the “duration of plasma levels of EFdA above lower limit of quantitation (LLOQ)” value was “more than a week”.

Consider `C#C[C@]1(COC(=O)C2CCCC2)O[C@@H](n2cnc3c(N)nc(F)nc32)C[C@@H]1OC(=O)C1CCCC1` [Compound 4, (2R,3S,5R)-5-(6-amino-2-fluoro-9H-purin-9-yl)-2-(((cyclopentanecarbonyl)oxy)methyl)-2-ethynyltetrahydrofuran-3-yl cyclopentanecarboxylate], for which the solubility in series [1] (setting [6]) is under 1 µg/mL.

For `C#C[C@]1(COC(=O)Cc2ccccc2)O[C@@H](n2cnc3c(N)nc(F)nc32)C[C@@H]1OC(=O)Cc1ccccc1` [Compound 5, (2R,3S,5R)-5-(6-amino-2-fluoro-9H-purin-9-yl)-2-ethynyl-2-((2-phenylacetoxy)methyl)tetrahydrofuran-3-yl 2-phenylacetate], the “duration of plasma levels of EFdA above LLOQ” value in series [4] is “more than a month”. Moreover, in series [2], the “half life and mean residence life compared with EFdA” value is “Enhanced half life and mean residence life”; the “Cmax compared with EFdA” value is “much lower than for EFdA”; the “duration of plasma levels of EFdA above lower limit of quantitation (LLOQ)” value is listed as “more than a week”. Moreover, in series [5] (setting [7]), the Flow entry is reported as “++++”, the “Syringeability (26 G)” value is on record as “✓”, the “Time Taken to Resuspend” value worked out at 2.2 min and the Viscosity result is listed as “++++”. For the same compound, in series [5] (setting [8]), the Flow entry is “++++”, the “Syringeability (26 G)” value is “✓”, the “Time Taken to Resuspend” value was determined as 2.5 min and the Viscosity result is listed as “++++”. Also, in series [5] (setting [9]), the Flow result was “++++”, the “Syringeability (26 G)” value was “✓”, the “Time Taken to Resuspend” value turned out to be 2.3 min and the Viscosity result is given as “++++”. In addition, in series [5] (setting [10]), the Flow result was “++++”, the “Syringeability (26 G)” value is on record as “✓”, the “Time Taken to Resuspend” value came to 2.5 min and the Viscosity entry is on record as “++++”. Also, in series [5] (setting [11]), the Flow entry was “++++”, the “Syringeability (26 G)” value was “✓”, the “Time Taken to Resuspend” value stood at 2.5 min and the Viscosity result is given as “++++”. Further, in series [5] (setting [12]), the Flow entry is on record as “++++”, the “Syringeability (26 G)” value is recorded as “✓”, the “Time Taken to Resuspend” value was found to be 3.0 min and the Viscosity entry is recorded as “++++”.

Turning to `C#C[C@]1(COC(=O)c2ccccc2)O[C@@H](n2cnc3c(N)nc(F)nc32)C[C@@H]1OC(=O)c1ccccc1` [Compound 6, (2R,3S,5R)-5-(6-amino-2-fluoro-9H-purin-9-yl)-2-((benzoyloxy)methyl)-2-ethynyl tetrahydrofuran-3-yl benzoate], the solubility in series [1] (setting [6]) was under 2 µg/mL. In series [3], the “crystallinity in suspension (XPRD)” value is reported as “retains good crystallinity in suspension”.
